The values that follow come from patent US20240294542A1, “NLRP3 INFLAMMASOME INHIBITOR AND APPLICATION THEREOF” (TransThera Sciences (Nanjing), Inc., priority 2021, published 2024).

This assay has as its system NLRP3 inflammasomes. Briefly: Inhibitory activity against NLRP3 inflammasome in THP-1 cells (LPS/nigericin stimulation, IL-1β ELISA). The conditions noted are these: PMA-differentiated THP-1 cells; LPS 500 ng/mL 3 h, compound 1 h, nigericin 10 μg/mL 30 min; human IL-1β in supernatant by Elisa; read-out: IC50 (nM), inhibitory activities against NLRP3 in THP-1 cells. It is filed as cell-based. The method, then:
Test Samples: The compounds of the present invention prepared according to exemplary methods.
THP-1 is Immortalized Human Macrophage Cell Line
• Test instrument: microplate reader (made from PE)
• 1. […] Culture plate coating: 100 μL polylysine solution was added into a 96-well cell culture plate, and the reaction was carried out at 37° C. for 30 min. The solution was discarded, and PBS was washed twice for later use. • 3. […] The resulting mixture was uniformly mixed, and finally diluted by 1:1000 times, and the cells were placed in a carbon dioxide cell incubator at 37° C. and cultured for 1 h. • c. Nigericin was added to each well at a final concentration of 10 μg/mL, and the plate was placed in a carbon dioxide cell incubator at 37° C. and cultured for 30 min. • d. The media in wells were transferred to a new culture plate, and then the plate was centrifuged at 3000 rpm for 5 min. Then the supernatant was transferred to a new 96-well plate. • e. The collected cell culture supernatant samples were tested for the content of human IL-1β by using a commercial Elisa kit, as specified in the instructions.
(In general: In an ELISA, binding on a coated surface is turned into a signal by an enzyme label.)
Consider `Cc1ccc(-c2nnc(N[C@@H]3CCCN(C)C3)c3cccc(F)c23)c(O)c1` [Compound 6, (R)-2-(8-fluoro-4-((1-methylpiperidin-3-yl)amino)phthalazin-1-yl)-5-methylphenol], for which the 50% inhibitory concentration (IC50) – broadly, the concentration needed to halve the response being measured – was 11 nM.

Consider `N#Cc1ccc(-c2nnc(N[C@@H]3CCCOC3)c3ccccc23)c(O)c1` [Compound 112, (R)-3-hydroxy-4-(4-((tetrahydro-2H-pyran-3-yl)amino)phthalazin-1-yl)benzonitrile], for which the IC50 stood at 16 nM.

For `N#Cc1ccc(-c2nnc(N[C@@H]3CCCN(C4CC4)C3)c3ccccc23)c(O)c1` [Compound 111, (R)-4-(4-((1-cyclopropylpiperidin-3-yl)amino)phthalazin-1-yl)-3-hydroxybenzonitrile], the concentration for half-maximal inhibition (IC50) amounted to 4 nM.

For `CC(C)N1CCC[C@@H](Nc2nnc(-c3ccc(C#N)cc3O)c3ccccc23)C1` [Compound 125, (R)-3-hydroxy-4-(4-((1-isopropylpiperidin-3-yl)amino)phthalazin-1-yl)benzonitrile], the 50% inhibitory concentration (IC50) worked out at 3 nM.

Consider `C[C@]1(O)C[C@@H](Nc2nnc(-c3ccc(C(F)(F)F)cc3O)c3c2CCCC3)C1` [Compound 32a, 2-(4-(((cis)-3-hydroxy-3-methylcyclobutyl)amino)-5,6,7,8-tetrahydrophthalazin-1-yl)-5-(trifluoromethyl)phenol], for which the half-inhibitory concentration (IC50) was 7 nM.

Take `Cc1ccc(-c2nnc(N[C@@H]3CCCN(C)C3)c3cc(Cl)ccc23)c(O)c1` [Compound 12, (R)-2-(6-chloro-4-((1-methylpiperidin-3-yl)amino)phthalazin-1-yl)-5-methylphenol]: the IC50 came to 4 nM.

For the molecule `CN1C[C@H](F)C[C@@H](Nc2nnc(-c3ccc(C#N)cc3O)c3ccccc23)C1` [Compound 123, 4-(4-(((3R,5R)-5-fluoro-1-methylpiperidin-3-yl)amino)phthalazin-1-yl)-3-hydroxybenzonitrile], the concentration for half-maximal inhibition (IC50) came out at 6 nM.

Regarding `CN1CCC[C@@H](Nc2nnc(-c3ccc(Br)cc3O)c3ccccc23)C1` [Compound 73, (R)-5-bromo-2-(4-((1-methylpiperidin-3-yl)amino)phthalazin-1-yl)phenol], the IC50 came to 1 nM.

Take `CN1CCC[C@@H](Nc2nnc(-c3ccc(C#N)cc3O)c3ccsc23)C1` [Compound 77, (R)-3-hydroxy-4-(7-((1-methylpiperidin-3-yl)amino)thieno[2,3-d]pyridazin-4-yl)benzonitrile]: the IC50 worked out at 2 nM.

As to `CC(C)(O)CN1CCC[C@@H](Nc2nnc(-c3ccc(C#N)cc3O)c3ccccc23)C1` [Compound 126], the half-inhibitory concentration (IC50) turned out to be 5 nM.

Take `Cc1cc(C#N)ccc1-c1nnc(N[C@@H]2CCCN(C)C2)c2ccccc12` [Compound 118, (R)-3-methyl-4-(4-((1-methylpiperidin-3-yl)amino)phthalazin-1-yl)benzonitrile]: the concentration for half-maximal inhibition (IC50) was found to be 23 nM.

For `N#Cc1ccc(-c2nnc(N[C@@H]3CCCN(C4CCOCC4)C3)c3ccccc23)c(O)c1` [Compound 124, (R)-3-hydroxy-4-(4-((1-(tetrahydro-2H-pyran-4-yl)piperidin-3-yl)amino)phthalazin-1-yl)benzonitrile], the IC50 was found to be 5 nM.

In the case of `Cc1ccc(-c2nnc(N[C@@H]3CCCN(C)C3)c3ccncc23)c(O)c1` [Compound 49, (R)-5-methyl-2-(1-((1-methylpiperidin-3-yl)amino)pyrido[3,4-d]pyridazin-4-yl)phenol], the half-maximal inhibitory concentration (IC50) is 9 nM.

For `CN1CCC[C@@H](Nc2nnc(-c3ccc(C#N)cc3O)c3sccc23)C1` [Compound 78, (R)-3-hydroxy-4-(4-((1-methylpiperidin-3-yl)amino)thieno[2,3-d]pyridazin-7-yl)benzonitrile], the half-inhibitory concentration (IC50) is 2 nM.

Take `CN1CCC[C@@H](Nc2nnc(-c3ccc(C#N)cc3O)c3ccccc23)C1` [Compound 42, (R)-3-hydroxy-4-(4-((1-methylpiperidin-3-yl)amino)phthalazin-1-yl)benzonitrile]: the IC50 was 13 nM.

For the molecule `Cc1ccc(-c2nnc(N[C@@H]3CCCN(C)C3)c3sccc23)c(O)c1` [Compound 70, (R)-5-methyl-2-(7-((1-methylpiperidin-3-yl)amino)thieno[2,3-d]pyridazin-4-yl)phenol], the half-inhibitory concentration (IC50) was 1 nM.

`Cc1ccc(-c2nnc(N[C@@H]3CCCN(C)C3)c3c2CCC3)c(O)c1` [Compound 3a, (R)-5-methyl-2-(4-((1-methylpiperidin-3-yl)amino)-6,7-dihydro-5H-cyclopenta[d]pyridazin-1-yl)phenol]: the IC50 was determined as 4 nM.

`Cc1ccc(-c2nnc(N[C@@H]3CCCN(C)C3)c3cnccc23)c(O)c1` [Compound 50, (R)-5-methyl-2-(4-((1-methylpiperidin-3-yl)amino)pyrido[3,4-d]pyridazin-1-yl)phenol]: the 50% inhibitory concentration (IC50) came to 1 nM.

Turning to `Cc1ccc2c(-c3ccc(C4CC4)cc3O)nnc(N[C@@H]3CCCN(C)C3)c2c1` [Compound 90, (R)-5-cyclopropyl-2-(6-methyl-4-((1-methylpiperidin-3-yl)amino)phthalazin-1-yl)phenol], the IC50 turned out to be 7 nM.

On to `Cc1ccc(-c2nnc(N[C@@H]3CCCN(C)C3)c3cc(C(F)(F)F)ccc23)c(O)c1` [Compound 24, (R)-5-methyl-2-(4-((1-methylpiperidin-3-yl)amino)-6-(trifluoromethyl)phthalazin-1-yl)phenol], for which the IC50 is 14 nM.

In the case of `COc1ccc(-c2nnc(N[C@@H]3CCCN(C)C3)c3ccccc23)c(O)c1` [Compound 74, (R)-5-methoxy-2-(4-((1-methylpiperidin-3-yl)amino)phthalazin-1-yl)phenol], the concentration for half-maximal inhibition (IC50) was 6 nM.

With `CN1CCC[C@@H](Nc2nnc(-c3ccc(C(F)F)cc3O)c3c2CCCC3)C1` [Compound 15a, (R)-5-(difluoromethyl)-2-(4-((1-methylpiperidin-3-yl)amino)-5,6,7,8-tetrahydrophthalazin-1-yl)phenol], the half-maximal inhibitory concentration (IC50) is 2 nM.

Regarding `N#Cc1ccc(-c2nnc(N[C@@H]3CCCN(CCO)C3)c3ccccc23)c(O)c1` [Compound 127, (R)-3-hydroxy-4-(4-((1-(2-hydroxyethyl)piperidin-3-yl)amino)phthalazin-1-yl)benzonitrile], the IC50 turned out to be 4 nM.

Turning to `CN1CCC[C@@H](Nc2nnc(-c3ccc(C4CC4)cc3O)c3c2CCCC3)C1` [Compound 5a, (R)-5-cyclopropyl-2-(4-((1-methylpiperidin-3-yl)amino)-5,6,7,8-tetrahydrophthalazin-1-yl)phenol], the concentration for half-maximal inhibition (IC50) turned out to be 5 nM.

In the case of `C[C@]1(O)C[C@@H](Nc2nnc(-c3ccc(C#N)cc3O)c3ccccc23)C1` [Compound 116, 3-hydroxy-4-(4-(((cis)-3-hydroxy-3-methylcyclobutyl)amino)phthalazin-1-yl)benzonitrile], the concentration for half-maximal inhibition (IC50) worked out at 21 nM.

Take `C[C@]1(O)C[C@@H](Nc2nnc(-c3ccc(C(F)(F)F)cc3O)c3ccccc23)C1` [Compound 129, 2-(4-(((cis)-3-hydroxy-3-methylcyclobutyl)amino)phthalazin-1-yl)-5-(trifluoromethyl)phenol]: the IC50 stood at 4 nM.

On to `CN1CCC[C@@H](Nc2nnc(-c3ccc(F)c(F)c3O)c3c2CCCC3)C1` [Compound 31a, (R)-2,3-difluoro-6-(4-((1-methylpiperidin-3-yl)amino)-5,6,7,8-tetrahydrophthalazin-1-yl)phenol], for which the IC50 was 6 nM.

Regarding `Cc1ccc2c(-c3ccc(Br)cc3O)nnc(N[C@@H]3CCCN(C)C3)c2c1` [Compound 88, (R)-5-bromo-2-(6-methyl-4-((1-methylpiperidin-3-yl)amino)phthalazin-1-yl)phenol], the half-inhibitory concentration (IC50) was determined as 1 nM.

In the case of `CN1CCC[C@@H](Nc2nnc(-c3ccc(C4CC4)cc3O)c3ccncc23)C1` [Compound 95, (R)-5-cyclopropyl-2-(4-((1-methylpiperidin-3-yl)amino)pyrido[3,4-d]pyridazin-1-yl)phenol], the 50% inhibitory concentration (IC50) came to 1 nM.

Take `CN1CCC[C@@H](Nc2nnc(-c3ccc(C(F)F)cc3O)c3ccccc23)C1` [Compound 87, (R)-5-(difluoromethyl)-2-(4-((1-methylpiperidin-3-yl)amino)phthalazin-1-yl)phenol]: the IC50 turned out to be 2 nM.

As to `Cc1ccc2c(N[C@@H]3CCCN(C)C3)nnc(-c3ccc(C#N)cc3O)c2c1` [Compound 54, (R)-3-hydroxy-4-(7-methyl-4-((1-methylpiperidin-3-yl)amino)phthalazin-1-yl)benzonitrile], the half-inhibitory concentration (IC50) worked out at 13 nM.

As to `Cc1ccc(-c2nnc(N[C@@H]3CCCN(C)C3)c3c(C)cccc23)c(O)c1` [Compound 5, (R)-5-methyl-2-(5-methyl-4-((1-methylpiperidin-3-yl)amino)phthalazin-1-yl)phenol], the half-inhibitory concentration (IC50) is 14 nM.

`CN1CCC[C@@H](Nc2nnc(-c3ccc(C#N)cc3O)c3ccncc23)C1` [Compound 79, (R)-3-hydroxy-4-(4-((1-methylpiperidin-3-yl)amino)pyrido[3,4-d]pyridazin-1-yl)benzonitrile]: the IC50 amounted to 13 nM.

Turning to `Cc1ccc(-c2nnc(N[C@@H]3CCCN(C)C3)c3ccc(C)cc23)c(O)c1` [Compound 3, (R)-5-methyl-2-(7-methyl-4-((1-methylpiperidin-3-yl)amino)phthalazin-1-yl)phenol], the half-inhibitory concentration (IC50) stood at 24 nM.

For `Cc1ccc(-c2nnc(N[C@@H]3CCCN(C)C3)c3cc(C4CC4)ccc23)c(O)c1` [Compound 32, (R)-2-(6-cyclopropyl-4-((1-methylpiperidin-3-yl)amino)phthalazin-1-yl)-5-methylphenol], the IC50 was 15 nM.
